Literature values in patent US10363268B2, “Proton-binding polymers for oral administration” (Tricida, Inc., priority 2013, dated 2019).

System: adult patients with CKD

Q: Which results are given for `O=C([O-])O.[Na+]` [sodium bicarbonate, Sodium bicarbonate]?
A: patients experiencing rapid progression (rapid decline of CrCl >3 ml/min per 1.73 m^2/yr) (CKD patients, 2 years): 9%; patients who developed ESRD (CKD patients, 2 years, ESRD = CrCl<10 ml/min): 6.5%; decline in CrCl (CKD patients, oral sodium bicarbonate for 2 years, average dose 1.82 g/day): 1.88 ml/min per 1.73 m^2; relative risk of ESRD (versus control group): 0.13; relative risk of rapid progression (versus control group): 0.15
